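Briefly, cells in 96-well plates were exposed to five compound concentrations for 48 h, and endpoints were estimated by linear interpolation. The concentration for full growth arrest is given as TGI.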
How the values were obtained:
Test in all cases: NCI-60 cell line screen, 48 h
[1] = tested on: MOLT-4 leukemia
[2] = tested on: HS 578T breast
[3] = tested on: OVCAR-4 ovarian
[4] = tested on: NCI-H460 lung
[5] = tested on: HOP-92 NSCLC
[6] = tested on: TK-10 renal
[7] = tested on: OVCAR-5 ovarian
[8] = tested on: K-562 leukemia
[9] = tested on: SF-268 CNS
[10] = tested on: MCF7 breast
[11] = tested on: CAKI-1 renal
[12] = tested on: A549 NSCLC
[13] = tested on: EKVX NSCLC
[14] = tested on: SF-539 CNS
[15] = tested on: SN12C renal

Compound	TGI [1]	TGI [2]	TGI [3]	TGI [4]	TGI [5]	TGI [6]	TGI [7]	TGI [8]	TGI [9]	TGI [10]	TGI [11]	TGI [12]	TGI [13]	TGI [14]	TGI [15]
O=C1NC(Cc2ccc(O)cc2)C(=O)NC1Cc1ccc(O)cc1 (stereo not given)	> 100 µM	> 100 µM	> 100 µM	> 100 µM	> 100 µM	> 100 µM	> 100 µM	> 100 µM	> 100 µM	> 100 µM	> 100 µM	> 100 µM	> 100 µM	> 100 µM	> 100 µM
OC(NN=C1CCCC1)(C(F)(F)Cl)C(F)(F)Cl	> 10 µM	> 10 µM	> 10 µM	> 10 µM	> 10 µM	> 10 µM	> 10 µM	> 10 µM	> 10 µM	> 10 µM	> 10 µM	> 10 µM	> 10 µM	> 10 µM	> 10 µM
Cc1nc(Nc2ccccc2Cl)sc1C(=O)CC(=O)C(N)=O	> 100 µM	> 100 µM	> 100 µM	> 100 µM	> 100 µM	> 100 µM	> 100 µM	> 100 µM	> 100 µM	> 100 µM	> 100 µM	> 100 µM	> 100 µM	> 100 µM	> 100 µM
CC(CNC(N)=O)NC(N)=O (stereo not given)	> 100 µM	> 100 µM	> 100 µM	> 100 µM	> 100 µM	> 100 µM	> 100 µM	> 100 µM	> 100 µM	> 100 µM	> 100 µM	> 100 µM	> 100 µM	> 100 µM	> 100 µM
CCOC(=O)CCC(C(=O)OCC)n1nnc2cc(Nc3c(C)[n+]([O-])c4cc(F)c(OCC)cc4[n+]3[O-])ccc21 (stereo not given)	> 100 µM	> 100 µM	> 100 µM	> 100 µM	88.8 µM	> 100 µM	> 100 µM	> 100 µM	94.9 µM	> 100 µM	> 100 µM	> 100 µM	> 100 µM	> 100 µM	> 100 µM
Oc1ccc(Oc2cc3c(cc2Oc2ccc(O)cc2)-c2nc-3nc3[nH]c(nc4nc(nc5[nH]c(n2)c2cc(Oc6ccc(O)cc6)c(Oc6ccc(O)cc6)cc52)-c2cc(Oc5ccc(O)cc5)c(Oc5ccc(O)cc5)cc2-4)c2cc(Oc4ccc(O)cc4)c(Oc4ccc(O)cc4)cc32)cc1	> 100 µM	> 100 µM	> 100 µM	> 100 µM	> 100 µM	> 100 µM	> 100 µM	> 100 µM	> 100 µM	> 100 µM	> 100 µM	> 100 µM	> 100 µM	> 100 µM	> 100 µM
NC(N)=NC1C(O)C(O)C(O)C(N=C(N)N)C1O (stereo not given)	> 100 µM	> 100 µM	> 100 µM	> 100 µM	> 100 µM	> 100 µM	> 100 µM	> 100 µM	> 100 µM	> 100 µM	> 100 µM	> 100 µM	> 100 µM	> 100 µM	> 100 µM
CC(C)(C)C1=C(Br)C(O)(C(C)(C)C)OP1(=O)c1ccccc1 (stereo not given)	> 100 µM	> 100 µM	> 100 µM	> 100 µM	> 100 µM	> 100 µM	> 100 µM	> 100 µM	> 100 µM	43.1 µM	> 100 µM	> 100 µM	> 100 µM	> 100 µM	> 100 µM
Cc1cc(S(=O)(=O)/N=C(/NN)Nc2ccc(Cl)cc2)c(S)cc1Cl	58.9 µM	11.3 µM	62.8 µM	17.1 µM	67.9 µM	65.3 µM	12.9 µM	> 100 µM	61.8 µM	52 µM	54.3 µM	23.8 µM	29.3 µM	42.6 µM	75.8 µM

Source: PubChem BioAssay (NCI)
